Laboratory results from patent publication US20240025856A1, “1,2,3,4-TETRAHYDROQUINOLINE DERIVATIVES AS INHIBITORS OF THE YAP/TAZ-TEAD ACTIVATION FOR TREATING CANCER” (KATHOLIEKE UNIVERSITEIT LEUVEN, priority 2020, published 2024).

Test system: YAP/TAZ-TEAD transcription
Assay: Reporter gene assay for measuring the inhibition of YAP/TAZ-TEAD transcription (TEAD-responsive element luciferase reporter in Hek293T cells)
Assay type: cell-based
Conditions: Hek293T cells transiently transfected with TEAD-responsive element luciferase reporter, 24 hours incubation
Procedure: Hek293T cells are cultured in DMEM supplemented with 10% fetal bovine serum, Sodium pyruvate, Sodium bicarbonate, L-glutamine. The cells are harvested and transiently transfected with TEAD-responsive element luciferase reporter. Transfected cells are plated in 384-wells plate containing pre-diluted compounds. After 24 hours incubation at 37° C./5% CO2, assay plates were cooled down to RT and levelled to an equal volume per well, prior to the addition of 25 uL luciferase substrate SteadyLite (Perkin Elmer)/well. The plate was shaken for 10 min at 600 rpm, centrifuged for 1 min at 500 rpm and measured with an Envision reader (PerkinElmer). The amount of relative light units produced by the TEAD reporter is used to calculated percent of inhibition. The percent of reporter inhibition was calculated in the presence of a positive control inhibitor (100% inhibition) versus a condition with the presence of the vehicle basal activity of the reporter (0% inhibition). The ability of a test compound to inhibit this activity was determined as: Percentage inhibition=[[…]((RLU determined in the presence of vehicle−RLU determined for sample with test compound present) divided by (RLU determined in the presence of vehicle−RLU determined for sample with positive control inhibitor))]*100
The activities of example compounds tested are depicted in the table below. The activity ranges A, B and C refer to IC50 values in the reporter gene assay as follows: “A”: IC50<1 μM; “B”: 1 μM≤IC50≤20 μM and “C”: IC50>20 μM; NT=not tested.

Row | SMILES | IC50 (Homo sapiens, HEK-293T, 24 h) [nM] | IC50 [nM]
1 | C=CC(=O)NCC1Cc2ccccc2N([C@H]2CC[C@@H](C(F)(F)F)CC2)C1 (stereo partly drawn) [compound 144, cis-N-((1-(4-(trifluoromethyl)cyclohexyl)-1,2,3,4-tetrahydroquinolin-3-yl)methyl)acrylamide] | < 1000 | 
2 | C=CC(=O)NC1Cc2ccccc2N(c2cccc(-c3ccccc3)c2)C1 (stereo not shown) [compound 009, N-(1-([1,1′-biphenyl]-3-yl)-1,2,3,4-tetrahydroquinolin-3-yl)acrylamide] | 1000 to 20000 | 
3 | C=CC(=O)NCC1Cc2ccccc2N(C2CCCCC2)C1 (stereo not shown) [compound 118, N-((1-cyclohexyl-1,2,3,4-tetrahydroquinolin-3-yl)methyl)acrylamide] | < 1000 | 
4 | C=CC(=O)NC1Cc2ccccc2N(c2cccc(OC)c2)C1 (stereo not shown) [compound 006, N-(1-(3-methoxyphenyl)-1,2,3,4-tetrahydroquinolin-3-yl)acrylamide] | < 1000 | 
5 | C=CC(=O)NCC1Cc2ccccc2N(CC2CCCCC2)C1 (stereo not shown) [compound 179, N-((1-(cyclohexylmethyl)-1,2,3,4-tetrahydroquinolin-3-yl)methyl)acrylamide] | < 1000 | 
6 | C=CC(=O)NCC1Cc2ccccc2N(c2ccc3cc[nH]c3c2)C1 (stereo not shown) [compound 104, N-((1-(1H-indol-6-yl)-1,2,3,4-tetrahydroquinolin-3-yl)methyl)acrylamide] | < 1000 | 
7 | C=CC(=O)NC1Cc2c(CN3CCOCC3)cccc2N(c2ccc(C(F)(F)F)cc2)C1 (stereo not shown) [compound 068, N-(5-(morpholinomethyl)-1-(4-(trifluoromethyl)phenyl)-1,2,3,4-tetrahydroquinolin-3-yl)acrylamide] | < 1000 | 
8 | C=CC(=O)NCC1Cc2ccccc2N(C2CCC(F)(F)CC2)C1 (stereo not shown) [compound 145, N-((1-(4,4-difluorocyclohexyl)-1,2,3,4-tetrahydroquinolin-3-yl)methyl)acrylamide] | < 1000 | 
9 | C=CC(=O)NCC1Cc2ccccc2N(c2ccc(F)cc2F)C1 (stereo not shown) [compound 102, N-((1-(2,4-difluorophenyl)-1,2,3,4-tetrahydroquinolin-3-yl)methyl)acrylamide] | < 1000 | 
10 | FC(F)(F)c1ccc(N2CC(C3CC(Br)=NO3)Cc3ccccc32)cc1 (single isomer, unassigned) [Cpd. No. 194(Dia2)-En2, 3-bromo-5-(1-(4-(trifluoromethyl)phenyl)-1,2,3,4-tetrahydroquinolin-3-yl)-4,5-dihydroisoxazole] |  | < 1000
11 | FC(F)(F)c1ccc(N2CC(C3CC(Br)=NO3)Cc3ccccc32)cc1 (single isomer, unassigned) [Cpd. No. 194(Dia1)-En2, 3-bromo-5-(1-(4-(trifluoromethyl)phenyl)-1,2,3,4-tetrahydroquinolin-3-yl)-4,5-dihydroisoxazole] |  | > 20000
12 | C=CC(=O)NC1Cc2ccccc2N(c2ccccc2)C1 (stereo not shown) [compound 002, N-(1-phenyl-1,2,3,4-tetrahydroquinolin-3-yl)acrylamide] | < 1000 | 
13 | C=CC(=O)NC1Cc2ccccc2N(Cc2ccccc2)C1 (stereo not shown) [Cpd. No. 174, N-(1-benzyl-1,2,3,4-tetrahydroquinolin-3-yl)acrylamide] | < 1000 | 
14 | C=CC(=O)NCC1Cc2ccccc2N(c2cccc(F)c2F)C1 (stereo not shown) [compound 109, N-((1-(2,3-difluorophenyl)-1,2,3,4-tetrahydroquinolin-3-yl)methyl)acrylamide] | < 1000 | 
15 | CCC(=O)NC1Cc2c(Nc3cccnc3)cccc2N(c2ccc(C(F)(F)F)cc2)C1 (stereo not shown) [compound 072, N-(5-(pyridin-3-ylamino)-1-(4-(trifluoromethyl)phenyl)-1,2,3,4-tetrahydroquinolin-3-yl)propionamide] | 1000 to 20000 | 
16 | CCC(=O)NC1Cc2c(Cc3cccnc3)cccc2N(c2ccc(C(F)(F)F)cc2)C1 (stereo not shown) [compound 061, N-(5-(pyridin-3-ylmethyl)-1-(4-(trifluoromethyl)phenyl)-1,2,3,4-tetrahydroquinolin-3-yl)propionamide] | 1000 to 20000 | 
17 | C=CC(=O)NCC1Cc2ccccc2N(c2cc(F)cc(F)c2)C1 (stereo not shown) [compound 111, N-((1-(3,5-difluorophenyl)-1,2,3,4-tetrahydroquinolin-3-yl)methyl)acrylamide] | < 1000 | 
18 | C=CC(=O)NC1Cc2ccccc2N(c2ccc(C(C)C)cc2)C1 (stereo not shown) [compound 004, N-(1-(4-isopropylphenyl)-1,2,3,4-tetrahydroquinolin-3-yl)acrylamide] | < 1000 | 
19 | C=CC(=O)NCC1Cc2ccccc2N(c2ccc(-c3ccccc3)cc2)C1 (stereo not shown) [compound 092, N-((1-([1,1′-biphenyl]-4-yl)-1,2,3,4-tetrahydroquinolin-3-yl)methyl)acrylamide] | < 1000 | 
20 | O=S1(=O)CCN1C1Cc2ccccc2N(c2ccc(C(F)(F)F)cc2)C1 (stereo not shown) [compound 050, 2-(1-(4-(trifluoromethyl)phenyl)-1,2,3,4-tetrahydroquinolin-3-yl)-1,2-thiazetidine-1,1-dioxide] | 1000 to 20000 | 
21 | C=CC(=O)NC1Cc2c(CC(=O)NS(C)(=O)=O)cccc2N(c2ccc(C(F)(F)F)cc2)C1 (stereo not shown) [compound 165, N-(5-(2-(methylsulfonamido)-2-oxoethyl)-1-(4-(trifluoromethyl)phenyl)-1,2,3,4-tetrahydroquinolin-3-yl)acrylamide] | > 20000 | 

Now from value to molecule:

Row | IC50 (Homo sapiens, HEK-293T, 24 h) [nM] | IC50 [nM] | SMILES
22 | 1000 to 20000 |  | N#CC1CN(C2Cc3ccccc3N(c3ccc(C(F)(F)F)cc3)C2)C1=O (stereo not shown) [compound 042, 2-oxo-1-(1-(4-(trifluoromethyl)phenyl)-1,2,3,4-tetrahydroquinolin-3-yl)azetidine-3-carbonitrile]
23 | < 1000 |  | CN(C)C/C=C/C(=O)NCC1Cc2ccccc2N(c2ccc(C(F)(F)F)cc2)C1 (stereo not shown) [compound 120, (E)-4-(dimethylamino)-N-((1-(4-(trifluoromethyl)phenyl)-1,2,3,4-tetrahydroquinolin-3-yl)methyl)but-2-enamide]
24 | < 1000 |  | C=CC(=O)NC1Cc2ccccc2N(c2cccc(C(F)(F)F)c2)C1 (stereo not shown) [compound 003, N-(1-(3-(trifluoromethyl)phenyl)-1,2,3,4-tetrahydroquinolin-3-yl)acrylamide]
25 | > 20000 |  | C=CC(=O)NCC1Cc2c(C(=O)O)cccc2N(c2ccc(C(F)(F)F)cc2)C1 (stereo not shown) [Cpd. No. 156, 3-(acrylamidomethyl)-1-(4-(trifluoromethyl)phenyl)-1,2,3,4-tetrahydroquinoline-5-carboxylic acid]
26 | < 1000 |  | C=CC(=O)NCC1Cc2ccccc2N(c2ccc(SC(F)(F)F)cc2)C1 (stereo not shown) [compound 114, N-((1-(4-((trifluoromethyl)thio)phenyl)-1,2,3,4-tetrahydroquinolin-3-yl)methyl)acrylamide]
27 | 1000 to 20000 |  | N#CCCNC1Cc2ccccc2N(c2ccc(C(F)(F)F)cc2)C1 (stereo not shown) [compound 053, 3-((1-(4-(trifluoromethyl)phenyl)-1,2,3,4-tetrahydroquinolin-3-yl)amino)propanenitrile]
28 | < 1000 |  | C=CC(=O)NC1Cc2c(CN)cccc2N(c2ccc(C(F)(F)F)cc2)C1 (stereo not shown) [compound 138, N-(5-(aminomethyl)-1-(4-(trifluoromethyl)phenyl)-1,2,3,4-tetrahydroquinolin-3-yl)acrylamide]
29 | < 1000 |  | C=CC(=O)NCC1CCc2ccccc2N1c1ccc(C(F)(F)F)cc1 (stereo not shown) [Cpd. No. 178, N-((1-(4-(trifluoromethyl)phenyl)-1,2,3,4-tetrahydroquinolin-2-yl)methyl)acrylamide]
30 | < 1000 |  | C=CC(=O)NC1Cc2ccccc2N(Cc2cccc(C(F)(F)F)c2)C1 (stereo not shown) [compound 182, N-(1-(3-(trifluoromethyl)benzyl)-1,2,3,4-tetrahydroquinolin-3-yl)acrylamide]
31 | < 1000 |  | C=CC(=O)NC1Cc2c(C(=O)O)cccc2N(c2ccc(C(F)(F)F)cc2)C1 (stereo not shown) [compound 079, 3-acrylamido-1-(4-(trifluoromethyl)phenyl)-1,2,3,4-tetrahydroquinoline-5-carboxylic acid]
32 | < 1000 |  | N#CCNCC1Cc2ccccc2N(c2ccc(C(F)(F)F)cc2)C1 (stereo not shown) [compound 127, 2-(((1-(4-(trifluoromethyl)phenyl)-1,2,3,4-tetrahydroquinolin-3-yl)methyl)amino)acetonitrile]
33 | < 1000 |  | OCCNC1Cc2ccccc2N(c2ccc(C(F)(F)F)cc2)C1 (stereo not shown) [compound 043, 2-((1-(4-(trifluoromethyl)phenyl)-1,2,3,4-tetrahydroquinolin-3-yl)amino)ethan-1-ol]
34 | < 1000 |  | C=CC(=O)NCC1Cc2cc(OC)ccc2N(c2ccc(C(F)(F)F)cc2)C1 (stereo not shown) [compound 131, N-((6-methoxy-1-(4-(trifluoromethyl)phenyl)-1,2,3,4-tetrahydroquinolin-3-yl)methyl)acrylamide]
35 | < 1000 |  | C=CC(=O)NC1Cc2ccccc2N(c2ccc(C(F)(F)F)cc2)C1 (single isomer, unassigned) [001-En1]
36 | 1000 to 20000 |  | CNS(=O)(=O)CCNC1Cc2ccccc2N(c2ccc(C(F)(F)F)cc2)C1 (stereo not shown) [compound 051, N-methyl-2-((1-(4-(trifluoromethyl)phenyl)-1,2,3,4-tetrahydroquinolin-3-yl)amino)ethane-1-sulfonamide]
37 | < 1000 |  | C=CC(=O)NCC1Cc2c(Cc3noc(=O)[nH]3)cccc2N(c2ccc(C(F)(F)F)cc2)C1 (stereo not shown) [Cpd. No. 168, N-((5-((5-oxo-4,5-dihydro-1,2,4-oxadiazol-3-yl)methyl)-1-(4-(trifluoromethyl)phenyl)-1,2,3,4-tetrahydroquinolin-3-yl)methyl)acrylamide]
